# Where two headings read alike, the source gives them in different places.
# How the values were obtained:
# [1] = test system: P. falciparum 3D7 parasites; experiment: P. falciparum growth inhibition assay, 2-cycle (120 h treatment), delayed-death screen and dose-response; format: cell-based, Plasmodium falciparum; details: for activity at 2 µg/mL: Plasmodium falciparum
# [2] = test system: T. gondii RH strain (RH-Tub-eYFP) tachyzoites; experiment: microbe, parasite or virus in culture; format: cell-based, Toxoplasma gondii; details: 72 h, 72 h; for percent parasite growth at 2 µg/mL: Toxoplasma gondii
# [3] = test system: P. falciparum 3D7 parasites; experiment: P. falciparum growth inhibition assay, 1-cycle (72 h treatment), SYBR DNA staining (library screen at 2 μg/mL and dose-response); format: cell-based, Plasmodium falciparum; details: for activity at 2 µg/mL: Plasmodium falciparum
# [4] = P. falciparum 3D7, 120 h, parasite screen at 2 μg/mL, % growth, replicate 1
# [5] = P. falciparum 3D7, 120 h, parasite screen at 2 μg/mL, % growth, replicate 2
# [6] = T. gondii, parasite screen at 2 μg/mL, % growth, replicate 1
# [7] = T. gondii, parasite screen at 2 μg/mL, % growth, replicate 2
# [8] = P. falciparum 3D7, 72 h, parasite screen at 2 μg/mL, % growth, replicate 1
# [9] = P. falciparum 3D7, 72 h, parasite screen at 2 μg/mL, % growth, replicate 2
# [10] = library screen at 2 μg/mL, 120 h, % growth, replicate 1
# [11] = library screen at 2 μg/mL, 120 h, % growth, replicate 2
# [12] = library screen at 2 μg/mL, % growth, replicate 1
# [13] = library screen at 2 μg/mL, % growth, replicate 2
# [14] = library screen at 2 μg/mL, 72 h, % growth, replicate 1
# [15] = library screen at 2 μg/mL, 72 h, % growth, replicate 2
smiles,measurement,setting,value
C=C1[C@@H](C)[C@H]2[C@H](Cc3ccccc3)NC(=O)[C@]23[C@H](OC(C)=O)/C=C/[C@@](C)(O)C(=O)[C@@H](C)C/C=C/[C@H]3[C@@H]1O [Cytochalasin D],activity at 2 µg/mL,"[1]; 3D7, 120 h, P. falciparum, 120 h, screen at 2 μg/mL, replicate 1, read-out: Pf_120h_%Growth_Rep1",3.12%
same,activity at 2 µg/mL,"[1]; 3D7, 120 h, P. falciparum, 120 h, screen at 2 μg/mL, replicate 2, read-out: Pf_120h_%Growth_Rep2",4.41%
same,percent parasite growth at 2 µg/mL,"[2]; T. gondii, screen at 2 μg/mL, replicate 1, read-out: Tg_72h_%Growth_Rep1",2.17%
same,percent parasite growth at 2 µg/mL,"[2]; T. gondii, screen at 2 μg/mL, replicate 2, read-out: Tg_72h_%Growth_Rep2",2.65%
same,activity at 2 µg/mL,"[3]; 3D7, 72 h, P. falciparum, 72 h, screen at 2 μg/mL, replicate 1, read-out: Pf_72h_%Growth_Rep1",6.33%
same,activity at 2 µg/mL,"[3]; 3D7, 72 h, P. falciparum, 72 h, screen at 2 μg/mL, replicate 2, read-out: Pf_72h_%Growth_Rep2",2.44%
CC(=O)OC1CCC2(C)C(CCC3C2CC(=O)C2(C)C3CC3OC4(CCC(C)CO4)C(C)C32)C1 (stereo not drawn) [BIA-H1764],Pf_120h_%Growth_Rep1,"[1]; P. falciparum 3D7, 120 h, library screen at 2 μg/mL, % growth, replicate 1",85.47%
same,Pf_120h_%Growth_Rep2,"[1]; P. falciparum 3D7, 120 h, library screen at 2 μg/mL, % growth, replicate 2",116.07%
same,Tg_72h_%Growth_Rep1,"[2]; T. gondii RH, library screen at 2 μg/mL, % growth, replicate 1",117.31%
same,Tg_72h_%Growth_Rep2,"[2]; T. gondii RH, library screen at 2 μg/mL, % growth, replicate 2",105.95%
same,Pf_72h_%Growth_Rep1,"[3]; P. falciparum 3D7, 72 h, library screen at 2 μg/mL, % growth, replicate 1",86.38%
same,Pf_72h_%Growth_Rep2,"[3]; P. falciparum 3D7, 72 h, library screen at 2 μg/mL, % growth, replicate 2",124.08%
O=C(O)CC[N+](=O)[O-] [BIA-N1694],Pf_120h_%Growth_Rep1,[1]; [4],78.14%
same,Pf_120h_%Growth_Rep2,[1]; [5],7.96%
same,Tg_72h_%Growth_Rep1,[2]; [6],133.03%
same,Tg_72h_%Growth_Rep2,[2]; [7],105.32%
same,Pf_72h_%Growth_Rep1,[3]; [8],75.60%
same,Pf_72h_%Growth_Rep2,[3]; [9],92.27%
CCc1cc(O)cc(O)c1C(=O)O[C@H]1[C@H](O)[C@H](OC)[C@H](OC/C2=C\C=C\C[C@H](O)/C(C)=C/[C@H](CC)[C@@H](O[C@@H]3OC(C)(C)[C@@H](OC(=O)C(C)C)[C@H](O)[C@@H]3O)/C(C)=C/C(C)=C/C[C@@H]([C@@H](C)O)OC2=O)O[C@@H]1C [Didechlorofidaxomicin],Pf_120h_%Growth_Rep1,[1]; [10],14.52%
same,Pf_120h_%Growth_Rep2,[1]; [11],29.62%
same,Tg_72h_%Growth_Rep1,[2]; [12],110.91%
same,Tg_72h_%Growth_Rep2,[2]; [13],90.14%
same,Pf_72h_%Growth_Rep1,[3]; [14],4.39%
same,Pf_72h_%Growth_Rep2,[3]; [15],6.69%
Cc1c2c(c(O)c3c(O)ccc(Cl)c13)C(=O)[C@]1(O)C(O)=C(C(N)=O)C(=O)[C@@H](N(C)C)[C@@H]1C2.Cl [Anhydrochlortetracycline hydrochloride],Pf_120h_%Growth_Rep1,[1]; [10],62.00%
same,Pf_120h_%Growth_Rep2,[1]; [11],93.26%
same,Tg_72h_%Growth_Rep1,[2]; [12],107.44%
same,Tg_72h_%Growth_Rep2,[2]; [13],94.77%
same,Pf_72h_%Growth_Rep1,[3]; [14],86.52%
same,Pf_72h_%Growth_Rep2,[3]; [15],88.12%
CC1=CCC2CC(CC3(CCC(C)C(C)O3)O2)OC(=O)C2C=C(C)C(=NO)C3OCC(=CC=CC(C)C1)C23O (stereo not drawn) [BIA-M1531],Pf_120h_%Growth_Rep1,[1]; [4],36.91%
same,Pf_120h_%Growth_Rep2,[1]; [5],51.60%
same,Tg_72h_%Growth_Rep1,[2]; [6],75.89%
same,Tg_72h_%Growth_Rep2,[2]; [7],79.64%
same,Pf_72h_%Growth_Rep1,[3]; [8],53.63%
same,Pf_72h_%Growth_Rep2,[3]; [9],28.47%
COc1cc(C)c(C(=O)Oc2cc(C)c(C(=O)O)c(O)c2)c(O)c1 [Evernic acid],activity at 2 µg/mL,"[1]; 3D7, library screen at 2 μg/mL, 120 h, % growth, replicate 1, read-out: Pf_120h_%Growth_Rep1",97.5%
same,activity at 2 µg/mL,"[1]; 3D7, library screen at 2 μg/mL, 120 h, % growth, replicate 2, read-out: Pf_120h_%Growth_Rep2",94.9%
same,percent parasite growth at 2 µg/mL,"[2]; library screen at 2 μg/mL, % growth, replicate 1, read-out: Tg_72h_%Growth_Rep1",133%
same,percent parasite growth at 2 µg/mL,"[2]; library screen at 2 μg/mL, % growth, replicate 2, read-out: Tg_72h_%Growth_Rep2",102%
same,activity at 2 µg/mL,"[3]; 3D7, library screen at 2 μg/mL, 72 h, % growth, replicate 1, read-out: Pf_72h_%Growth_Rep1",86.3%
same,activity at 2 µg/mL,"[3]; 3D7, library screen at 2 μg/mL, 72 h, % growth, replicate 2, read-out: Pf_72h_%Growth_Rep2",86.5%
COc1cc(O)c2c(c1)C(=O)c1cc3c(c(O)c1C2=O)C(OC1OC(C)C(OC)C(O)C1OC)C(OC)C(C)(O)C3=O (stereo not drawn) [Steffimycin B],Pf_120h_%Growth_Rep1,"[1]; P. falciparum, 120 h, parasite screen 2 μg/mL, % growth, replicate 1",57.65%
same,Pf_120h_%Growth_Rep2,"[1]; P. falciparum, 120 h, parasite screen 2 μg/mL, % growth, replicate 2",80.04%
same,Tg_72h_%Growth_Rep1,"[2]; T. gondii, parasite screen 2 μg/mL, % growth, replicate 1",26.05%
same,Tg_72h_%Growth_Rep2,"[2]; T. gondii, parasite screen 2 μg/mL, % growth, replicate 2",22.83%
same,Pf_72h_%Growth_Rep1,"[3]; P. falciparum, 72 h, parasite screen 2 μg/mL, % growth, replicate 1",70.82%
same,Pf_72h_%Growth_Rep2,"[3]; P. falciparum, 72 h, parasite screen 2 μg/mL, % growth, replicate 2",45.75%

# From paper PMC12396409, “Screening and hit evaluation of a microbial metabolite library against the pathogenic Plasmodium falciparum and Toxoplasma gondii parasites” (International Journal for Parasitology: Drugs and Drug …, 2025)
